IC50, MIC and Activity data for five molecules are collected here from ChEMBL document CHEMBL1151156, “Lakoochins A and B, new antimycobacterial stilbene derivatives from Artocarpus lakoocha” (J Nat Prod, 2004).

A short description of assay [1]: Cytotoxicity against human BC cells by SRB assay. In kind it is functional, cell-based. On the technique in general: In SRB staining, fixed cells bind dye roughly in proportion to their protein.
In assay [2] the test system is Mycobacterium tuberculosis. Kind of assay: Antimycobacterial activity against Mycobacterium tuberculosis H37Ra after 4 days by microplate alamar blue assay. In kind it is functional. The conditions noted are these: 96 h.
The subject of assay [3] is KB. Nature of the assay: Cytotoxicity against human KB cells by SRB assay. In kind it is functional, cell-based.
The test system of assay [4] is KB. Nature of the assay: Cytotoxicity against human KB cells at 20 ug/ml by SRB assay. In kind it is functional, cell-based.

What is called IC50 is the concentration that gives 50% inhibition. Lower therefore signals inhibition by little substance. Broadly, the MIC is the lowest concentration found to suppress growth. Read a low MIC as greater potency.

SMILES strings stand for the structures. ≈ marks a conversion by molar mass, not a printed value. Calls of active or inactive are those of the source. No cut-off for these calls is given here.

Molecule `Cc1c2ccncc2c(C)c2c1[nH]c1ccccc12` [ELLIPTECINE] came in with an IC50 in assay [1] of 0.2 µg/mL (≈ 0.812 µM).

Turning to `CC(C)=CCC/C(C)=C/Cc1c(O)cc(O)c(CC=C(C)C)c1-c1cc2ccc(O)cc2o1` [LAKOOCHIN B], the MIC in assay [2] came to 50 µg/mL (≈ 112 µM). Also, the IC50 with KB [3] is 6.1 µg/mL (≈ 13.7 µM); in assay [1], 3.1 µg/mL (≈ 6.94 µM).

Turning to `COc1cc(OC)c(CC=C(C)C)c(-c2cc3ccc(O)cc3o2)c1CC=C(C)C` [LAKOOCHIN A], 12.5 µg/mL (≈ 30.7 µM) was the least that counted as inhibitory in assay [2] (MIC). In assay [1], this molecule had an IC50 of 6.1 µg/mL (≈ 15 µM). Besides, in the assay with KB [4], the outcome was inactive.

`NC[C@H]1O[C@H](O[C@H]2[C@H](O)[C@@H](O[C@H]3O[C@H](CO)[C@@H](O)[C@H](N)[C@H]3O)[C@H](N)C[C@@H]2N)[C@H](O)[C@@H](O)[C@@H]1O.O=S(=O)(O)O` [KANAMYCIN SULFATE]: the MIC in assay [2] is 2 µg/mL.

Molecule `NNC(=O)c1ccncc1` [ISONIAZID] displayed an MIC in assay [2] of 0.04 µg/mL (≈ 0.292 µM).
